Measured values: patent US20150086695A1, “SWEETENER COMPOSITION, SWEETENER PRODUCTS, AND METHODS OF SWEETENING” (Almendra Americas, LLC, priority 2013, published 2015)

Tested on: trained expert panelists
Assay: Sensory panel scaling of taste attributes on 0-15 scales (formulation study ballot)
Type: in vivo, human
Details: 0-15 scale; for Bitterness Intensity @ 2 Min (Bitter2) / Numbing/Tingling Sensation @ 2 Min (Numb/Ting2) / Sweetness Intensity @ 2 Min (Sweet2): at 2 minutes; for Bitterness Intensity @ 2 Min (Bitter2) / Numbing/Tingling Sensation @ 2 Min (Numb/Ting2) / Sweetness Intensity @ 2 Min (Sweet2) / Astringency Intensity (Astring) / Bitterness Intensity (IB) / Mouthfeel (Mfeel) / Numbing/Tingling Sensation (Numb/Ting) / Soapiness (Soap) / Sweetness Intensity Initial (Sweetness) / Sweetness Onset/Appearance Time (Onset): defined calibration rating, Sucrose Reference 10.0% sucrose, REB A Reference 500 PPM, both in 0.1% citric acid
Description: Tongue numbing can also manifest itself as “tongue tingling”. These non-sugar-like characteristics appear inter-related in the sense that formulation as well as temperature changes affect the perception of several of them. Another taste characteristic of steviol glycosides, particularly those with relatively low levels of REB A, is soapiness, a characteristic that results from the surfactant portion of the molecule. To quantify all of these sensory effects by existing methods would require an expert sensory panel and at least 4 different sensory tests (i.e., C/R Function Determination, Flavor Profile Analysis, Temporal Profile Analysis and Adaptation Profile Analysis). However, to address a need for rapid screening of HP sweetener formulations, Prakash et al., described a scaling technique to quantify all of these sensory percepts in a single test (reference shown below under the table). An improvement of this methodology is described below.
Prior to the evaluation of test samples, all panelists must first calibrate themselves on Sucrose and Reference Samples (e.g., REB A) to ensure that they are able to appropriately scale taste attributes of interest. These Reference Samples are to be available in ample quantities for all experimental sessions. The Sucrose Reference is 10.0% sucrose acidified with 0.1% citric acid. For illustration purposes, an example of a Reference Sample can be a REB A Reference Sample that has 500 PPM REB A in the same system for general formula optimization studies.
Take a ca. 15 mL sample of the Sucrose Reference into the mouth swishing it around vigorously and note all attributes of the sensory experience. After ca. 10 sec, expectorate the sample and immediately rinse vigorously with ca. 15 mL of water, expectorating the rinse water. Over the next 2 minutes, while minimizing tongue movement in the mouth, pay attention to any rebound or intensification in perceived sweetness, bitterness, or numbing/tingling sensation. The intensity of the attribute perceived at 2 minutes is an estimate of its lingering tendency. Upon completion of calibration with the Sucrose Reference, calibration with the REB A Reference is carried out in the same way. The attribute ratings for the Sucrose and REB A References, all on 0-15 scales, are defined as follows: […]
After completion of reference sample calibrations, as well as in follow up of all sample tests, rinse the mouth vigorously with ca. 15 mL portions of the Sucrose Reference solution and two ca. 15 mL portions of water in effort to get the sensory system back to baseline. […]

| Compound | Bitterness Intensity @ 2 Min (Bitter2) | Numbing/Tingling Sensation @ 2 Min (Numb/Ting2) | Sweetness Intensity @ 2 Min (Sweet2) | Astringency Intensity (Astring) | Bitterness Intensity (IB) | Mouthfeel (Mfeel) | Numbing/Tingling Sensation (Numb/Ting) | Soapiness (Soap) | Sweetness Intensity Initial (Sweetness) | Sweetness Onset/Appearance Time (Onset) | scores on all lingering attributes (Example 9, REBA100 500 mg/L in 0.1% citric acid, two panelists) |
| --- | --- | --- | --- | --- | --- | --- | --- | --- | --- | --- | --- |
| C=C1C[C@@]23CC[C@H]4[C@@](C)(CCC[C@@]4(C)C(=O)O[C@@H]4O[C@H](CO)[C@@H](O)[C@H](O)[C@H]4O)[C@@H]2CC[C@]1(O[C@@H]1O[C@H](CO)[C@@H](O)[C@H](O[C@@H]2O[C@H](CO)[C@@H](O)[C@H](O)[C@H]2O)[C@H]1O[C@@H]1O[C@H](CO)[C@@H](O)[C@H](O)[C@H]1O)C3 [REB A100, rebaudioside A] | 2 | 2 | 3 | 0 | 3 | 0 | 0 | 1 | 10 | 3 | – |
| OC[C@H]1O[C@@](CO)(O[C@H]2O[C@H](CO)[C@@H](O)[C@H](O)[C@H]2O)[C@@H](O)[C@@H]1O [Sucrose, sucrose] | 0 | 0 | 0 | 0 | 0 | 10 | 0 | 0 | 10 | 0 | 0 |
